Source: patent US10954287B2, “Ras binding peptides and methods of use” (Ra Pharmaceuticals, Inc., priority 2016, dated 2021)
*1 amine or outer side, *2 acyl side, *3 side chain or, on linkers, in order; H or OH if unused. Where a SMILES comes first, the peptide text is derived from it. [ ]: non-standard residue; d: D form. ξ: configuration not given here. DAPTZAC2 = (S)-3-(4-(2-acrylamidoethyl)-1H-1,2,3-triazol-1-yl)-2-aminopropanoic acid, C=CC(=O)NCCc1cn(C[C@H](N[*:1])C(=O)[*:2])nn1; Trp(7-aza) = N[C@@H](Cc1c[nH]c2ncccc12)C(=O)O; NMePhe(4-F) = CN[C@@H](Cc1ccc(F)cc1)C(=O)O; Phg = N[C@H](C(=O)O)c1ccccc1; Tle = CC(C)(C)[C@H](N)C(=O)O; ξPhg = NC(C(=O)O)c1ccccc1; NMeA = CN[C@@H](C)C(=O)O; Pra = C#CC[C@H](N)C(=O)O; Nva = CCC[C@H](N)C(=O)O; Ava = NCCCCC(=O)O; Sar = CNCC(=O)O

Tested on: GMPPNP-loaded H-Ras or GTP-loaded K-Ras
Assay: Fluorescence polarization competition assay with TAMRA-labeled probe R4007
Format: binding, human
Settings: 120 nM Ras, 30 nM probe R4007, 60 minutes at room temperature; read-out: Probe displacement (nM IC50)
Procedure: R4000 was evaluated for competition with a TAMRA labeled probe (R4007) based on peptide R4000. The assay was performed in 384-well black, non-binding plates (Greiner Bio-One, Monroe, N.C.). GMPPNP-loaded H-Ras or GTP-loaded K-Ras, diluted in FP assay buffer (20 mM Tris-HCl, pH 7.5, 50 mM NaCl, 5 mM MgCl2, 1 mM EDTA, 0.002% Triton-X-100) for a final concentration of 120 nM was incubated with 30 nM R4007 for 20 minutes at room temperature. R4000 was serially diluted, added to the assay and incubated for 60 minutes at room temperature. Fluorescence polarization was detected with a SpectraMax Paradigm plate reader (Molecular Devices, Sunnyvale, Calif.) using the Rhodamine FP detection cartridge (535 nm/595 nm). Data was analyzed using GraphPad Prism and Ki determined using One Site Ki Curve fitting model.
Peptides were evaluated for competition with R4007, a probe consisting of TAMRA-labeled R4000, using a fluorescence polarization (FP) competition assay. The assay was performed in 384-well black, non-binding plates (Greiner Bio-One, Monroe, N.C.). GMPPNP-loaded H-Ras or GTP- loaded K-Ras, diluted in FP assay buffer (20 mM Tris-HCl, pH 7.5, 50 mM NaCl, 5 mM MgCl2, 1 mM EDTA, 0.002% Triton-X-100) for a final concentration of 120 nM was incubated with 30 nM probe for 20 minutes at room temperature. Peptides were serially diluted, added to the assay and incubated for 60 minutes at room temperature. Fluorescence was detected with a SpectraMax Paradigm plate reader (Molecular Devices, Sunnyvale, Calif.) using the Rhodamine FP detection cartridge (535 nm/595 nm). Data was analyzed and Ki determined using a One Site Ki Curve fitting model. Percent inhibition for each data point was calculated relative to the maximal binding in test compound-free control wells (showing no probe displacement) and Ras-free control wells (showing no probe binding) and the half-maximal inhibitory concentration (IC50), based on probe displacement, was determined.

| IC50 | Compound |
| --- | --- |
| 2800 nM | C#CC[C@@H]1NC(=O)CN(C)C(=O)[C@H](Cc2ccc(F)cc2)N(C)C(=O)[C@H](Cc2ccc(O)cc2)NC(=O)[C@H](Cc2c[nH]c3ncccc23)NC(=O)[C@H](c2ccccc2)NC(=O)[C@H](C)N(C)C(=O)[C@H](Cc2c[nH]cn2)NC(=O)[C@H](CCCCN)NC(=O)[C@H](C(C)(C)C)NC(=O)[C@H](Cc2ccc(O)cc2)NC1=O (relative stereo) [Compound R4145, TYR*-TBG-LYS-HIS-NMA-PHG-7AW-TYR-MFF-SAR-PRG*] |
| 64.4 nM | CCC[C@H](NC(C)=O)C(=O)N[C@H]1CSCc2cccc(c2)CSC[C@@H](C(=O)NCC(=O)N[C@@H](CS)C(=O)NCC(=O)N[C@H](C(=O)NCC(=O)N[C@H](C(=O)N[C@@H](CCSC)C(=O)O)[C@@H](C)CC)C(C)C)NC(=O)CN(C)C(=O)[C@H](Cc2ccc(F)cc2)N(C)C(=O)[C@H](Cc2ccc(O)cc2)NC(=O)[C@H](Cc2c[nH]c3ncccc23)NC(=O)[C@H](c2ccccc2)NC(=O)[C@H](C)N(C)C(=O)[C@H](Cc2c[nH]cn2)NC(=O)[C@H](CCCCN)NC(=O)[C@H](C(C)(C)C)NC(=O)[C@H](Cc2ccc(O)cc2)NC1=O (relative stereo) [Compound R4119, ACE-NVA-CYS*-TYR-TBG-LYS-HIS-NMA-PHG-7AW-TYR-MFF-SAR-CYS*-GLY-CYS-GLY-VAL-GLY-ILE-MET] |
| 1240 nM | C=CC(=O)NCCC[C@H]1C(=O)N[C@@H](c2ccccc2)C(=O)N[C@@H](Cc2c[nH]c3ncccc23)C(=O)N[C@@H](Cc2ccc(O)cc2)C(=O)N(C)[C@@H](Cc2ccc(F)cc2)C(=O)N(C)CC(=O)N[C@H](C(N)=O)CSCc2cccc(c2)CSC[C@H](NC(=O)[C@H](CCC)NC(C)=O)C(=O)N[C@@H](Cc2ccc(O)cc2)C(=O)N[C@@H](C(C)(C)C)C(=O)N[C@@H](C)C(=O)N[C@@H](Cc2c[nH]cn2)C(=O)N1C (relative stereo) [Compound R4142, ACE-NVA-CYS*-TYR-TBG-ALA-HIS-MORAC-PHG-7AW-TYR-MFF-SAR-CYS*-NH2] |
| 215 nM | C#CC[C@@H]1NC(=O)CN(C)C(=O)[C@H](Cc2ccc(F)cc2)N(C)C(=O)[C@H](Cc2ccc(O)cc2)NC(=O)[C@H](Cc2c[nH]c3ncccc23)NC(=O)[C@H](c2ccccc2)NC(=O)[C@H](C)N(C)C(=O)[C@H](Cc2c[nH]cn2)NC(=O)[C@H](CCCCN)NC(=O)[C@H](C(C)(C)C)NC(=O)[C@H](Cc2ccc(O)cc2)NC(=O)CCCCNC1=O [Compound R4128, APA*-TYR-TBG-LYS-HIS-NMA-PHG-7AW-TYR-MFF-SAR-PRG*] (cyclo([Ava]Y[Tle]KH[NMeA][Phg][Trp(7-aza)]Y[NMePhe(4-F)][Sar][Pra])) |
| 127 nM | CCC[C@H](NC(C)=O)C(=O)N[C@H]1CSCc2cccc(c2)CSC[C@@H](C(N)=O)NC(=O)CN(C)C(=O)[C@H](Cc2ccc(F)cc2)N(C)C(=O)[C@H](Cc2ccc(O)cc2)NC(=O)[C@H](Cc2c[nH]c3ncccc23)NC(=O)[C@H](c2ccccc2)NC(=O)[C@H](C)N(C)C(=O)[C@H](C)NC(=O)[C@H](CCCCN)NC(=O)[C@H](C(C)(C)C)NC(=O)[C@H](Cc2ccc(O)cc2)NC1=O (relative stereo) [Compound R4126, ACE-NVA-CYS*-TYR-TBG-LYS-ALA-NMA-PHG-7AW-TYR-MFF-SAR-CYS*-NH2] |
| 12200 nM | ACE-NVA-SER-TYR-TBG-ALA-DAPTZAC2-NMA-RPHG-7AW-TYR-MFF-SAR-SER-NH2 (Ac-[Nva]SY[Tle]A[DAPTZAC2][NMeA][ξPhg][Trp(7-aza)]Y[NMePhe(4-F)][Sar]S-NH2) [Compound R4151, linear] |

Second part, the compound before the results:

| Compound | IC50 |
| --- | --- |
| CCC[C@H](NC(C)=O)C(=O)N[C@H]1CSCc2cccc(c2)CSC[C@@H](C(N)=O)NC(=O)CN(C)C(=O)[C@H](Cc2ccc(F)cc2)N(C)C(=O)[C@H](Cc2ccc(O)cc2)NC(=O)[C@H](Cc2c[nH]c3ccccc23)NC(=O)[C@H](c2ccccc2)NC(=O)[C@H](C)N(C)C(=O)[C@H](Cc2c[nH]cn2)NC(=O)[C@H](CCCCN)NC(=O)[C@H](C(C)(C)C)NC(=O)[C@H](Cc2ccc(O)cc2)NC1=O (relative stereo) [Compound R4115, ACE-NVA-CYS*-TYR-TBG-LYS-HIS-NMA-PHG-TRP-TYR-MFF-SAR-CYS*-NH2] | 34.1 nM |
| C=CC(=O)NCc1cn(C[C@H](NC(=O)[C@H](C)NC(=O)[C@@H](NC(=O)[C@H](Cc2ccc(O)cc2)NC(=O)[C@H](CO)NC(=O)[C@H](CCC)NC(C)=O)C(C)(C)C)C(=O)N(C)[C@@H](C)C(=O)NC(C(=O)N[C@@H](Cc2c[nH]c3ncccc23)C(=O)N[C@@H](Cc2ccc(O)cc2)C(=O)N(C)[C@@H](Cc2ccc(F)cc2)C(=O)N(C)CC(=O)N[C@@H](CO)C(N)=O)c2ccccc2)nn1 (stereo partly shown) [Compound R4005, ACE-NVA-SER-TYR-TBG-ALA-DAPTZAC1-NMA-RPHG-7AW-TYR-MFF-SAR-SER-NH2] | 2070 nM |
| CCC[C@H](N)C(=O)N[C@H]1CSCc2cccc(c2)CSC[C@@H](C(=O)N[C@H](CO)C(=O)N[C@@H](CCCCN)C(=O)NCC(=O)N[C@@H](CS)C(=O)N[C@H](C(=O)N[C@H](C(=O)N[C@@H](CCSC)C(=O)O)[C@@H](C)CC)C(C)C)NC(=O)CN(C)C(=O)[C@H](Cc2ccc(F)cc2)N(C)C(=O)[C@H](Cc2ccc(O)cc2)NC(=O)[C@H](Cc2c[nH]c3ncccc23)NC(=O)[C@H](c2ccccc2)NC(=O)[C@H](C)N(C)C(=O)[C@H](Cc2c[nH]cn2)NC(=O)[C@H](CCCCN)NC(=O)[C@H](C(C)(C)C)NC(=O)[C@H](Cc2ccc(O)cc2)NC1=O (relative stereo) [Compound R4114, NVA-CYS*-TYR-TBG-LYS-HIS-NMA-PHG-7AW-TYR-MFF-SAR-CYS*-DSER-LYS-GLY-CYS-VAL-ILE-MET] | 32.7 nM |
| CCC[C@H](NC(C)=O)C(=O)N[C@H]1CSCc2cccc(c2)CSC[C@@H](C(=O)NCC(=O)N[C@@H](CS)C(=O)N[C@@H](CCSC)C(=O)N[C@@H](CO)C(=O)N[C@@H](CS)C(=O)N[C@@H](CCCCN)C(=O)N[C@@H](CS)C(=O)N[C@H](C(=O)N[C@@H](CC(C)C)C(=O)N[C@@H](CO)C(N)=O)C(C)C)NC(=O)CN(C)C(=O)[C@H](Cc2ccc(F)cc2)N(C)C(=O)[C@H](Cc2ccc(O)cc2)NC(=O)[C@H](Cc2c[nH]c3ncccc23)NC(=O)[C@H](c2ccccc2)NC(=O)[C@H](C)N(C)C(=O)[C@H](Cc2c[nH]cn2)NC(=O)[C@H](CCCCN)NC(=O)[C@H](C(C)(C)C)NC(=O)[C@H](Cc2ccc(O)cc2)NC1=O (relative stereo) [Compound R4116, ACE-NVA-CYS*-TYR-TBG-LYS-HIS-NMA-PHG-7AW-TYR-MFF-SAR-CYS*-GLY-CYS-MET-SER-CYS-LYS-CYS-VAL-LEU-SER-NH2] | 35.7 nM |
| CC(=O)N[C@@H](CO)C(=O)N[C@H]1CSCc2cccc(c2)CSC[C@@H](C(N)=O)NC(=O)CN(C)C(=O)[C@H](Cc2ccc(F)cc2)N(C)C(=O)[C@H](Cc2ccc(O)cc2)NC(=O)[C@H](Cc2c[nH]c3ncccc23)NC(=O)[C@H](c2ccccc2)NC(=O)[C@H](C)N(C)C(=O)[C@H](Cc2c[nH]cn2)NC(=O)[C@H](CCCCN)NC(=O)[C@H](C(C)(C)C)NC(=O)[C@H](Cc2ccc(O)cc2)NC1=O (relative stereo) [Compound R4104, ACE-SER-CYS*-TYR-TBG-LYS-HIS-NMA-PHG-7AW-TYR-MFF-SAR-CYS*-NH2] | 3.29 nM |
| CCC[C@H](NC(C)=O)C(=O)N[C@H]1CSCc2cccc(c2)CSC[C@@H](C(=O)N[C@H](CO)C(=O)N[C@H](C)C(=O)N[C@@H](CCCCN)C(=O)N[C@@H](CSSC(C)(C)C)C(=O)N[C@H](C(=O)N[C@H](C(=O)N[C@@H](CCSC)C(=O)O)[C@@H](C)CC)C(C)C)NC(=O)CN(C)C(=O)[C@H](Cc2ccc(F)cc2)N(C)C(=O)[C@H](Cc2ccc(O)cc2)NC(=O)[C@H](Cc2c[nH]c3ncccc23)NC(=O)[C@H](c2ccccc2)NC(=O)[C@H](C)N(C)C(=O)[C@H](Cc2c[nH]cn2)NC(=O)[C@H](CCCCN)NC(=O)[C@H](C(C)(C)C)NC(=O)[C@H](Cc2ccc(O)cc2)NC1=O (relative stereo) [Compound R4111, ACE-NVA-CYS*-TYR-TBG-LYS-HIS-NMA-PHG-7AW-TYR-MFF-SAR-CYS*-DSER-DALA-LYS-TDSPA-VAL-ILE-MET] | 20.8 nM |
| CCC[C@H](NC(C)=O)C(=O)N[C@H]1CSCc2cccc(c2)CSC[C@@H](C(N)=O)NC(=O)[C@H](Cc2c[nH]cn2)NC(=O)[C@H](CCC)NC(=O)[C@H](Cc2c[nH]c3ncccc23)NC(=O)[C@H](CCC(=O)O)NC(=O)[C@H](Cc2c[nH]c3ncccc23)NC(=O)[C@H](Cc2c[nH]c3ncccc23)NC(=O)[C@H]([C@@H](C)O)NC(=O)[C@H](Cc2c[nH]cn2)NC(=O)[C@H](Cc2ccc(O)cc2)NC(=O)[C@H](C(C)(C)C)NC1=O (relative stereo) [Compound R4100, ACE-NVA-CYS*-TBG-TYR-HIS-THR-7AW-7AW-GLU-7AW-NVA-HIS-CYS*-NH2] | 1.06 nM |
